Test results taken from patent US11564394B2, “Distorted gold (I)-phosphine complexes and methods for use as antifungal agents” (University of Kentucky Research Foundation, priority 2019, dated 2023).
Read-outs that look alike come from different tables or passages of the source.

Experiments:
[1] = tested on: C. auris AR Bank # 0384 (strain K); test: MIC determination (broth microdilution); assay type: cell-based, Candida auris
[2] = tested on: C. auris AR Bank # 0390 (strain L); test: MIC determination (broth microdilution); assay type: cell-based, Candida auris
[3] = tested on: C. auris AR Bank # 0381 (strain I); test: MIC determination (broth microdilution); assay type: cell-based, Candida auris; details: Candidozyma auris
[4] = tested on: C. auris AR Bank # 0382 (strain II); test: MIC determination (broth microdilution); assay type: cell-based, Candida auris; details: Candidozyma auris
[5] = tested on: C. auris AR Bank # 0383 (strain III); test: MIC determination (broth microdilution); assay type: cell-based, Candida auris; details: Candidozyma auris
[6] = tested on: C. auris AR Bank # 0385 (strain IV); test: MIC determination (broth microdilution); assay type: cell-based, Candida auris; details: Candidozyma auris
[7] = tested on: C. auris AR Bank # 0386 (strain V); test: MIC determination (broth microdilution); assay type: cell-based, Candida auris; details: Candidozyma auris
[8] = tested on: C. auris AR Bank # 0387 (strain VI); test: MIC determination (broth microdilution); assay type: cell-based, Candida auris; details: Candidozyma auris
[9] = tested on: C. auris AR Bank # 0388 (strain VII); test: MIC determination (broth microdilution); assay type: cell-based, Candida auris; details: Candidozyma auris
[10] = tested on: C. auris AR Bank # 0389 (strain VIII); test: MIC determination (broth microdilution); assay type: cell-based, Candida auris; details: Candidozyma auris
[11] = tested on: C. albicans ATCC MYA-1003(R) (strain A); assay type: cell-based, Candida albicans; details: strain A = C. albicans ATCC MYA-1003(R); MIC-0; 48 h at 35° C.
[12] = tested on: C. albicans ATCC 10231(R) (strain B); assay type: cell-based, Candida albicans
[13] = tested on: C. albicans ATCC MYA-1237(R) (strain C); assay type: cell-based, Candida albicans; details: strain C = C. albicans ATCC MYA-1237(R); MIC-0; 48 h; listed as printed beside letter D
[14] = tested on: C. albicans ATCC MYA-2310(S) (strain D); test: MIC determination (broth microdilution); assay type: cell-based, Candida albicans; details: strain D = C. albicans ATCC MYA-2310(S); MIC-0; 48 h; listed as printed beside letter E
[15] = tested on: C. albicans ATCC MYA-2876(S) (strain E); test: MIC determination (broth microdilution); assay type: cell-based, Candida albicans; details: strain E = C. albicans ATCC MYA-2876(S); MIC-0; 48 h; listed as printed beside letter F
[16] = tested on: C. albicans ATCC 64124(R) (strain F); assay type: cell-based, Candida albicans; details: strain F = C. albicans ATCC 64124(R); MIC-0; 48 h; listed as printed beside letter G
[17] = tested on: C. albicans ATCC 90819(R) (strain G); assay type: cell-based, Candida albicans; details: strain G = C. albicans ATCC 90819(R); MIC-0; 48 h; listed as printed without letter, below G
[18] = tested on: C. glabrata ATCC 2001 (strain H); test: MIC determination (broth microdilution); assay type: cell-based, Candida glabrata; details: strain H = C. glabrata ATCC 2001; MIC-0; 48 h at 35° C.
[19] = tested on: C. krusei ATCC 6258 (strain I); test: MIC determination (broth microdilution); assay type: cell-based; details: strain I = C. krusei ATCC 6258; MIC-0; 48 h; listed as split over r16 and r17 (r17 printed beside letter J)
[20] = tested on: C. parapsilosis ATCC 22019 (strain J); test: MIC determination (broth microdilution); assay type: cell-based; details: strain J = C. parapsilosis ATCC 22019; MIC-0; 48 h; listed as printed beside letter K
[21] = tested on: C. neoformans ATCC MYA-85 (strain M); test: MIC determination (broth microdilution); assay type: cell-based, Cryptococcus neoformans; details: strain M = C. neoformans ATCC MYA-85; MIC-0; 72 h at 35° C.
[22] = tested on: C. neoformans CN1 (strain N); test: MIC determination (broth microdilution); assay type: cell-based, Cryptococcus neoformans; details: MIC-0, 72 h at 35° C.
[23] = tested on: C. neoformans CN2 (strain O); test: MIC determination (broth microdilution); assay type: cell-based, Cryptococcus neoformans; details: MIC-0, 72 h at 35° C.
[24] = tested on: C. neoformans CN3 (strain P); test: MIC determination (broth microdilution); assay type: cell-based, Cryptococcus neoformans; details: MIC-0, 72 h at 35° C.
[25] = tested on: A. nidulans ATCC 38163 (strain Q); test: MIC determination (broth microdilution); assay type: cell-based, Aspergillus nidulans; details: strain Q = A. nidulans ATCC 38163; MIC-0; 72 h at 35° C.
[26] = tested on: A. terreus ATCC MYA-3633 (strain R); assay type: cell-based, Aspergillus terreus; details: strain R = A. terreus ATCC MYA-3633; MIC-0; 72 h at 35° C.
[27] = tested on: A. flavus ATCC MYA-3631 (strain S); test: MIC determination (broth microdilution); assay type: cell-based, Aspergillus flavus; details: strain S = A. flavus ATCC MYA-3631; MIC-0; 72 h at 35° C.
[28] = tested on: F. graminearum 053 (strain T); assay type: cell-based, Fusarium graminearum; details: strain T = F. graminearum 053; MIC-0; room temperature, 5 days
[29] = tested on: fungal strains (Candida spp., Cryptococcus spp., Aspergillus spp., Fusarium spp.); test: MIC determination, summary statements over the strain panel; assay type: cell-based
[30] = Candidozyma auris, read-out: MIC (in parentheses)
[31] = strain K = C. auris AR Bank # 0384, MIC-0, 48 h (CAS read at 24 h), Table 1, also in Table 2
[32] = strain L = C. auris AR Bank # 0390, MIC-0, 48 h (CAS read at 24 h), Table 1 row printed without letter, below L, also in Table 2

CC[C@H](C)C[C@H](C)CCCCCCCCC(=O)N[C@H]1C[C@@H](O)[C@@H](NCCN)NC(=O)[C@@H]2[C@@H](O)CCN2C(=O)[C@H]([C@H](O)CCN)NC(=O)[C@H]([C@H](O)[C@@H](O)c2ccc(O)cc2)NC(=O)[C@@H]2C[C@@H](O)CN2C(=O)[C@H]([C@@H](C)O)NC1=O [CAS, caspofungin]
MIC ([1]; Candidozyma auris): 1.95 mg/L
MIC [1, 30]: 1.8 µM
MIC ([2]; Candidozyma auris): 7.8 mg/L
MIC [2, 30]: 7.1 µM
MIC [3]: < 0.98 mg/L
MIC ([3]; read-out: MIC (in parentheses)): < 0.9 µM
MIC [4]: < 0.98 mg/L
MIC ([4]; read-out: MIC (in parentheses)): < 0.9 µM
MIC [5]: 1.95 mg/L
MIC ([5]; read-out: MIC (in parentheses)): 1.8 µM
MIC [6]: < 0.98 mg/L
MIC ([6]; read-out: MIC (in parentheses)): < 0.9 µM
MIC [7]: 7.8 mg/L
MIC ([7]; read-out: MIC (in parentheses)): 7.1 µM
MIC [8]: 31.3 mg/L
MIC ([8]; read-out: MIC (in parentheses)): 28.6 µM
MIC [9]: 31.3 mg/L
MIC ([9]; read-out: MIC (in parentheses)): 28.6 µM
MIC [10]: 7.8 mg/L
MIC ([10]; read-out: MIC (in parentheses)): 7.1 µM

CC1CCC(C)[P+]1([Au-][Cl])c1ccccc1[P+]1([Au-][Cl])C(C)CCC1C [Compound 5, [1,2-bis[(2R,5R)-2,5-dimethylphospholano]benzene]digold(1)]
MIC [11]: 3.9 mg/L
MIC (in parentheses) [11]: 5.1 µM
MIC [12]: 31.3 (40.6) μg/mL
MIC (in parentheses) [12]: 31.3 (40.6) μM
MIC [13]: 15.6 mg/L
MIC (in parentheses) [13]: 20.2 µM
MIC [14]: 7.8 mg/L
MIC (in parentheses) [14]: 10.1 µM
MIC [15]: 15.6 mg/L
MIC (in parentheses) [15]: 20.2 µM
MIC [16]: 15.6 mg/L
MIC (in parentheses) [16]: 20.2 µM
MIC [17]: 7.8 mg/L
MIC (in parentheses) [17]: 10.1 µM
MIC [18]: 15.6 mg/L
MIC (in parentheses) [18]: 20.2 µM
MIC [19]: 31.3 mg/L
MIC (in parentheses) [19]: 40.6 µM
MIC [20]: 15.6 mg/L
MIC (in parentheses) [20]: 20.2 µM
MIC [1, 31]: > 31.3 mg/L
MIC (in parentheses) [1, 31]: > 40.6 µM
MIC [2, 32]: > 31.3 mg/L
MIC (in parentheses) [2, 32]: > 40.6 µM
MIC [21]: 0.12 mg/L
MIC (in parentheses) [21]: 0.2 µM
MIC [22]: 15.6 mg/L
MIC (in parentheses) [22]: 20.2 µM
MIC [23]: 7.8 mg/L
MIC (in parentheses) [23]: 10.1 µM
MIC [24]: 7.8 mg/L
MIC (in parentheses) [24]: 10.1 µM
MIC [25]: > 31.3 mg/L
MIC (in parentheses) [25]: > 40.6 µM
MIC [26]: > 31.3 mg/L
MIC (in parentheses) [26]: > 40.6 µM
MIC [27]: > 31.3 mg/L
MIC (in parentheses) [27]: > 40.6 µM
MIC [28]: > 31.3 mg/L
MIC (in parentheses) [28]: > 40.6 µM
antifungal activity ([29]; Aspergillus spp., Fusarium spp. and most of the non-albicans Candida strains): inactive
overall assessment as antifungals ([29]; panel of twenty fungal strains (Table 1)): poor antifungals

OC(Cn1cncn1)(Cn1cncn1)c1ccc(F)cc1F [FLC, fluconazole]
MIC ([1]; Candidozyma auris, strain K = C. auris AR Bank # 0384, MIC-2, read-out: MIC (MIC-2 for azoles)): 31.3 mg/L
MIC ([1]; Candidozyma auris, strain K = C. auris AR Bank # 0384, MIC-2, read-out: MIC (MIC-2 for azoles, in parentheses)): 102 µM
MIC ([2]; Candidozyma auris, strain L = C. auris AR Bank # 0390, MIC-2, read-out: MIC (MIC-2 for azoles)): > 62.5 mg/L
MIC ([2]; Candidozyma auris, strain L = C. auris AR Bank # 0390, MIC-2, read-out: MIC (MIC-2 for azoles, in parentheses)): > 204 µM
MIC ([3]; strain I = C. auris AR Bank # 0381, MIC-2, optical density at 600 nm, read-out: MIC (MIC-2 for azoles)): 0.49 mg/L
MIC ([3]; strain I = C. auris AR Bank # 0381, MIC-2, optical density at 600 nm, read-out: MIC (MIC-2 for azoles, in parentheses)): 1.6 µM
MIC ([4]; strain II = C. auris AR Bank # 0382, MIC-2, read-out: MIC (MIC-2 for azoles)): 0.49 mg/L
MIC ([4]; strain II = C. auris AR Bank # 0382, MIC-2, read-out: MIC (MIC-2 for azoles, in parentheses)): 1.6 µM
MIC ([6]; strain IV = C. auris AR Bank # 0385, MIC-2, read-out: MIC (MIC-2 for azoles)): > 62.5 mg/L
MIC ([6]; strain IV = C. auris AR Bank # 0385, MIC-2, read-out: MIC (MIC-2 for azoles, in parentheses)): > 204 µM
MIC ([7]; strain V = C. auris AR Bank # 0386, MIC-2, read-out: MIC (MIC-2 for azoles)): > 62.5 mg/L
MIC ([7]; strain V = C. auris AR Bank # 0386, MIC-2, read-out: MIC (MIC-2 for azoles, in parentheses)): > 204 µM
MIC ([8]; strain VI = C. auris AR Bank # 0387, MIC-2, read-out: MIC (MIC-2 for azoles)): 0.98 mg/L
MIC ([8]; strain VI = C. auris AR Bank # 0387, MIC-2, read-out: MIC (MIC-2 for azoles, in parentheses)): 3.2 µM
MIC ([9]; strain VII = C. auris AR Bank # 0388, MIC-2, read-out: MIC (MIC-2 for azoles)): > 62.5 mg/L
MIC ([9]; strain VII = C. auris AR Bank # 0388, MIC-2, read-out: MIC (MIC-2 for azoles, in parentheses)): > 204 µM
MIC ([10]; strain VIII = C. auris AR Bank # 0389, MIC-2, read-out: MIC (MIC-2 for azoles)): > 62.5 mg/L
MIC ([10]; strain VIII = C. auris AR Bank # 0389, MIC-2, read-out: MIC (MIC-2 for azoles, in parentheses)): > 204 µM
